Measurements: US10149876B2, “Tripterygium wilfordii extracts to overcome chemotherapy resistance” (WESTERN UNIVERSITY OF HEALTH SCIENCES, priority 2012, dated 2018)
Where “and” joins values, the source holds several entries; their conditions need not be identical. Equal values may be shown once. Read-outs that look alike come from different tables or passages of the source.

Columns and labels:
Assay type in all cases: cell-based, human
BT474-TxR cells = experiment: SRB cell viability assay, Herceptin-resistant BT474-TxR cells; conditions: 72 h
Method: PC3-TxR cells were plated into sterile, F-bottom Cellstar® 96 well cell culture plates with lids (Cat #655180, Purchased from Greiner Bio-one, Monroe, N.C.) by placing into each well, 100 μl of medium containing 3000 cells in RPMI 1640 supplemented with 10% fetal bovine serum (Thermo Scientific, Logan, Utah) and a solution of penicillin (100 U/ml) and streptomycin (100 μg/ml) (Life Technologies Grand Island, N.Y.). The cells were at passage 52 at the time of plating. Triplicate wells were assigned to each experimental condition tested, and a 24 hour recovery period for the cells following the seeding of the wells was allowed. During the recovery period, the cells were incubated at 37° C. and 5% CO2.
The LGT-E was prepared by adding an appropriate amount of LGT-E powder to DMSO to form a 500 mg/ml stock solution. The stock solution was alternately vortexed and sonicated until the LGT-E powder went into solution. The stock solution was diluted in RPMI 1640 medium (Mediatech, Manassas, Va., or Life Technologies Grand Island, NY) to reach the desired concentrations of LGT-E (e.g., 12, 25, or 60 μg/ml).
Pretreatment of the cells with LGT-E was carried out by aspirating the media from the wells, followed by adding 50 μl of LGT-E solution containing concentrations of either 12 or 25 μg/ml of LGT-E solution and incubation of the cells for two hours under conditions of 37° C. and 5% CO2.
Media was aspirated from each well, and replaced with a 10% solution of cold trichloroacetic acid (TCA) (Cat #: T6399, purchased from Sigma-Aldrich), and incubated for one hour at 4° C. After the TCA incubation, the TCA solution was aspirated, and the cells were washed five times with tap water. After removing the last wash, the plates were left with lids off at room temperature until the surfaces were dry, which took one to two hours. Then 50 μl of a 0.4% solution of sul-forhodamine B (SRB) sodium salt (Cat #: S9012, purchased from Sigma-Aldrich) was added to each well and the plates were incubated at room temperature for 20 to 30 minutes. Afterwards, the wells were washed five times with a 1% acetic acid solution in 10 mM TRIS base (Cat#: 161-0719, purchased from Bio-Rad Laboratories, Hercules, Calif.). The plates were subsequently left to dry for several hours or overnight. SRB that remained in the dried wells was solubilized by adding 100 μl of SRB solubilization solution (10 mM TRIS base) to each well, and placing the plates either on a gently-moving shaker or letting the plates remain stationary at room temperature until the SRB dissolves, which takes about five to ten minutes. The amount of SRB in each well, which correlated directly to the number of living cells at fixation, was determined spectrophotometrically at an absorbance of 565 nm by a microplate reader.

SkBr3 cells = experiment: SRB cell viability assay, lapatinib-sensitive SkBr3 cells; conditions: for mean A at 565 nm: no chemosensitizing pre-treatment, background = 0.047
Method: Cell culture of the above cell lines was performed as described in Example 2, except that 5,000, rather than 3,000 cells were plated per well for the K562, K562/Dox, BT474, SkBr3 lines.
Table 17 also contains the serially-diluted concentrations of drugs that each cell line was tested against.
(§1) FIG. 13 summarizes the data of Tables 32-33 in a graphical format.

SkBr3-TxR cells = experiment: SRB cell viability assay, lapatinib-resistant SkBr3-TxR cells; conditions: for viability at 0.001 µM / viability at 0.02 µM / viability at 0.067 µM / viability at 0.2 µM / viability at 0.67 µM / viability at 2 µM / viability at 6.7 µM / viability at 20 µM / IC50: Homo sapiens; for viability at 0.067 µM: Lapatinib 0.067 μM
Description: as §1
FIG. 14 summarizes the data of Tables 34 and 35 in a graphical format.

Compound: CS(=O)(=O)CCNCc1ccc(-c2ccc3ncnc(Nc4ccc(OCc5cccc(F)c5)c(Cl)c4)c3c2)o1 [lapatinib]
- mean A at 565 nm (BT474-TxR cells; Lapatinib 0.67 μM, no LGT-E pre-treatment (control to Table 30), background = 0.047): 0.829
- mean A at 565 nm (BT474-TxR cells; Lapatinib 0.67 μM, pre-treated with 25 μg/ml LGT-E, background = 0.047): 0.549
- mean A at 565 nm (BT474-TxR cells; Lapatinib 0.67 μM, pre-treated with […] LGT-E, background = 0.045): 0.598
- mean A at 565 nm (BT474-TxR cells; Lapatinib 2 μM, no LGT-E pre-treatment (control to Table 28), background = 0.045): 0.739
- mean A at 565 nm (BT474-TxR cells; Lapatinib 2 μM, no LGT-E pre-treatment (control to Table 30), background = 0.047): 0.712
- mean A at 565 nm (BT474-TxR cells; Lapatinib 2 μM, pre-treated with 25 μg/ml LGT-E, background = 0.047): 0.482
- mean A at 565 nm (BT474-TxR cells; Lapatinib 2 μM, pre-treated with […] LGT-E, background = 0.045): 0.533
- mean A at 565 nm (BT474-TxR cells; Lapatinib 6.7 μM, no LGT-E pre-treatment (control to Table 28), background = 0.045): 0.674
- mean A at 565 nm (BT474-TxR cells; Lapatinib 6.7 μM, no LGT-E pre-treatment (control to Table 30), background = 0.047): 0.648
- mean A at 565 nm (BT474-TxR cells; Lapatinib 6.7 μM, pre-treated with 25 μg/ml LGT-E, background = 0.047): 0.355
- mean A at 565 nm (BT474-TxR cells; Lapatinib 6.7 μM, pre-treated with […] LGT-E, background = 0.045): 0.461
- mean A at 565 nm (BT474-TxR cells; Lapatinib 20 μM, no LGT-E pre-treatment (control to Table 28), background = 0.045): 0.594
- mean A at 565 nm (BT474-TxR cells; Lapatinib 20 μM, no LGT-E pre-treatment (control to Table 30), background = 0.047): 0.515
- mean A at 565 nm (BT474-TxR cells; Lapatinib 20 μM, pre-treated with 25 μg/ml LGT-E, background = 0.047): 0.239
- mean A at 565 nm (BT474-TxR cells; Lapatinib 20 μM, pre-treated with […] LGT-E, background = 0.045): 0.405
- IC50 (SkBr3 cells; Homo sapiens, SK-BR-3, read-out: IC50 of drug when cells treated with drug only): 241 nM and 0.14 µg/mL
- mean A at 565 nm (SkBr3 cells; Lapatinib 0.001 μM): 2.203
- mean A at 565 nm (SkBr3 cells; Lapatinib 0.067 μM): 1.707
- mean A at 565 nm (SkBr3 cells; Lapatinib 0.2 μM): 1.314
- mean A at 565 nm (SkBr3 cells; Lapatinib 0.67 μM): 0.708
- mean A at 565 nm (SkBr3 cells; Lapatinib 2 μM): 0.347
- mean A at 565 nm (SkBr3 cells; Lapatinib 6.7 μM): 0.211
- mean A at 565 nm (SkBr3 cells; Lapatinib 20 μM): 0.221
- viability at 0.001 µM (SkBr3-TxR cells; Lapatinib 0.001 μM, 72 h, no LGT-E pre-treatment (control to Table 34)): 100%
- viability at 0.001 µM (SkBr3-TxR cells; Lapatinib 0.001 μM, 72 h, pre-treated with […] LGT-E): 100%
- viability at 0.001 µM (SkBr3-TxR cells; Lapatinib 0.001 μM, no chemosensitizing pre-treatment (Table 33)): 100%
- viability at 0.02 µM (SkBr3-TxR cells; Lapatinib 0.02 μM, 72 h, no LGT-E pre-treatment (control to Table 34)): 99.2%
- viability at 0.02 µM (SkBr3-TxR cells; Lapatinib 0.02 μM, 72 h, pre-treated with […] LGT-E): 97.2%
- viability at 0.02 µM (SkBr3-TxR cells; Lapatinib 0.02 μM, no chemosensitizing pre-treatment (Table 33)): 103%
- viability at 0.067 µM (SkBr3-TxR cells; 72 h, no LGT-E pre-treatment (control to Table 34)): 96.2%
- viability at 0.067 µM (SkBr3-TxR cells; 72 h, pre-treated with […] LGT-E): 92.6%
- viability at 0.067 µM (SkBr3-TxR cells; no chemosensitizing pre-treatment (Table 33)): 102%
- viability at 0.2 µM (SkBr3-TxR cells; Lapatinib 0.2 μM, 72 h, no LGT-E pre-treatment (control to Table 34)): 93.1%
- viability at 0.2 µM (SkBr3-TxR cells; Lapatinib 0.2 μM, 72 h, pre-treated with […] LGT-E): 90.3%
- viability at 0.2 µM (SkBr3-TxR cells; Lapatinib 0.2 μM, no chemosensitizing pre-treatment (Table 33)): 97.2%
- viability at 0.67 µM (SkBr3-TxR cells; Lapatinib 0.67 μM, 72 h, no LGT-E pre-treatment (control to Table 34)): 88.8%
- viability at 0.67 µM (SkBr3-TxR cells; Lapatinib 0.67 μM, 72 h, pre-treated with […] LGT-E): 75.9%
- viability at 0.67 µM (SkBr3-TxR cells; Lapatinib 0.67 μM, no chemosensitizing pre-treatment (Table 33)): 91.8%
- viability at 2 µM (SkBr3-TxR cells; Lapatinib 2 μM, 72 h, no LGT-E pre-treatment (control to Table 34)): 70.4%
- viability at 2 µM (SkBr3-TxR cells; Lapatinib 2 μM, 72 h, pre-treated with […] LGT-E): 60.9%
- viability at 2 µM (SkBr3-TxR cells; Lapatinib 2 μM, no chemosensitizing pre-treatment (Table 33)): 77.2%
- viability at 6.7 µM (SkBr3-TxR cells; Lapatinib 6.7 μM, 72 h, no LGT-E pre-treatment (control to Table 34)): 47.7%
- viability at 6.7 µM (SkBr3-TxR cells; Lapatinib 6.7 μM, 72 h, pre-treated with […] LGT-E): 34.9%
- viability at 6.7 µM (SkBr3-TxR cells; Lapatinib 6.7 μM, no chemosensitizing pre-treatment (Table 33)): 46.4%
- viability at 20 µM (SkBr3-TxR cells; Lapatinib 20 μM, 72 h, no LGT-E pre-treatment (control to Table 34)): 25.4%
- viability at 20 µM (SkBr3-TxR cells; Lapatinib 20 μM, 72 h, pre-treated with […] LGT-E): 18.3%
- viability at 20 µM (SkBr3-TxR cells; Lapatinib 20 μM, no chemosensitizing pre-treatment (Table 33)): 26.4%
- IC50 (SkBr3-TxR cells; read-out: IC50 of drug when cells pre-treated with Chemosensitizing Agent before drug treatment): 3.92 µM and 2.28 µg/mL
- IC50 (SkBr3-TxR cells; read-out: IC50 of drug when cells treated with drug only): 6.2 µM and 3.6 µg/mL
- mean A at 565 nm (SkBr3-TxR cells; Lapatinib 0.001 μM, 72 h, no LGT-E pre-treatment (control to Table 34), background = 0.044): 2.294
- mean A at 565 nm (SkBr3-TxR cells; Lapatinib 0.001 μM, no chemosensitizing pre-treatment (Table 33), background = 0.047): 2.298
- mean A at 565 nm (SkBr3-TxR cells; Lapatinib 0.02 μM, 72 h, no LGT-E pre-treatment (control to Table 34), background = 0.044): 2.276
- mean A at 565 nm (SkBr3-TxR cells; Lapatinib 0.02 μM, 72 h, pre-treated with […] LGT-E, background = 0.044): 2.151
- mean A at 565 nm (SkBr3-TxR cells; Lapatinib 0.02 μM, no chemosensitizing pre-treatment (Table 33), background = 0.047): 2.357
- mean A at 565 nm (SkBr3-TxR cells; Lapatinib 0.2 μM, 72 h, pre-treated with […] LGT-E, background = 0.044): 1.999
- mean A at 565 nm (SkBr3-TxR cells; Lapatinib 0.2 μM, no chemosensitizing pre-treatment (Table 33), background = 0.047): 2.234
- mean A at 565 nm (SkBr3-TxR cells; Lapatinib 0.67 μM, 72 h, no LGT-E pre-treatment (control to Table 34), background = 0.044): 2.038
- mean A at 565 nm (SkBr3-TxR cells; Lapatinib 2 μM, 72 h, no LGT-E pre-treatment (control to Table 34), background = 0.044): 1.614
- mean A at 565 nm (SkBr3-TxR cells; Lapatinib 2 μM, 72 h, pre-treated with […] LGT-E, background = 0.044): 1.348
- mean A at 565 nm (SkBr3-TxR cells; Lapatinib 2 μM, no chemosensitizing pre-treatment (Table 33), background = 0.047): 1.775
- mean A at 565 nm (SkBr3-TxR cells; Lapatinib 6.7 μM, 72 h, no LGT-E pre-treatment (control to Table 34), background = 0.044): 1.095
- mean A at 565 nm (SkBr3-TxR cells; Lapatinib 6.7 μM, 72 h, pre-treated with […] LGT-E, background = 0.044): 0.772
- mean A at 565 nm (SkBr3-TxR cells; Lapatinib 6.7 μM, no chemosensitizing pre-treatment (Table 33), background = 0.047): 1.066
- mean A at 565 nm (SkBr3-TxR cells; Lapatinib 20 μM, 72 h, no LGT-E pre-treatment (control to Table 34), background = 0.044): 0.584
- mean A at 565 nm (SkBr3-TxR cells; Lapatinib 20 μM, 72 h, pre-treated with […] LGT-E, background = 0.044): 0.406
- mean A at 565 nm (SkBr3-TxR cells; Lapatinib 20 μM, no chemosensitizing pre-treatment (Table 33), background = 0.047): 0.607
